Legend:
hIL-6 mRNA = assay: Inhibition of hIL-6 mRNA transcription in LPS-stimulated U937 macrophages; type: cell-based, Human; conditions: Homo sapiens, U-937, PMA-differentiated U937 cells, 1 h pretreatment, LPS 3 h, read-out: IL-6 activity
Summary of the method: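 PMA-differentiated U937 macrophages (60 ng/mL PMA, 3 days) pretreated 1 h with compound in 0.1% DMSO, then stimulated with 1 ug/mL E. coli LPS for 3 h at 37° C. IL-6 mRNA quantified by one-step TaqMan qRT-PCR, normalized to cyclophilin; fold expression relative to control, triplicate wells.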

Human AML MV-4-11 cells = assay: Inhibition of cell proliferation in MV4-11 cells (CellTiter Aqueous One); type: cell-based; conditions: for IC50: MV4-11, 72 h
Summary of the method: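 MV4-11 cells, 5×10^4 per well in IMDM with 10% FBS, were exposed to increasing compound concentrations or 0.1% DMSO for 72 h at 37 °C in triplicate. Viability was read by MTS (CellTiter Aqueous One) absorbance at 490 nm after 3-4 h. IC50 was derived from background-corrected signal relative to DMSO.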

[1] = system: c-myc in Human AML MV4-11 cells; assay: Inhibition of cMYC expression (mRNA, real-time PCR) in MV4-11 cells; type: cell-based; conditions: 3 h treatment, cMYC mRNA by real-time PCR
Summary of the method: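 MV4-11 cells in IMDM with 10% FBS were treated with increasing compound concentrations (DMSO 0.1%) for 3 h at 37 °C, in triplicate. Isolated mRNA was quantified by one-step TaqMan RT-qPCR, cMYC Ct normalized to cyclophilin, and fold expression given relative to DMSO control.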

[2] = target: Brd4 bromodomain 1 (BRD4(1)) (Homo sapiens, UniProt O60885); assay: Inhibition of tetra-acetylated histone H4 binding to Brd4 bromodomain 1, measured by FRET (HTRF); design: made in house; host or cells: E. coli BL21(DE3); conditions: 2 h at room temperature
Summary of the method: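 N-terminally His-tagged bromodomain (200 nM), expressed in E. coli and purified by Ni affinity and size exclusion, was incubated with biotinylated tetra-acetylated H4 peptide (25-50 nM), Eu-cryptate streptavidin and XL665 anti-His in HEPES pH 7.4 buffer with 0.2% DMSO. Reactions ran 2 h at room temperature. IC50 came from the 665/620 nm fluorescence decrease.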

| SMILES | IC50 (hIL-6 mRNA) | IC50 (Human AML MV-4-11 cells) | IC50 [1] | IC50 [2] | Cell Proliferation activity (Human AML MV-4-11 cells; 72 h) |
| --- | --- | --- | --- | --- | --- |
| Cc1ccncc1-c1cc(-c2c(C)noc2C)cc2[nH]c(NC3CCOCC3)nc12 [Example Compound 201, 6-(3,5-dimethyl-isoxazol-4-yl)-4-(4-methyl-pyridin-3-yl)-N-(tetra hydro-2H-pyran-4-yl)-1H-benzo[d] imidazol-2-amine] | ≤ 300 nM | ≤ 300 nM | ≤ 300 nM | ≤ 300 nM | – |
| Cc1noc(C)c1-c1cc(-c2c(C)noc2C)c2nn(C)cc2c1 [Example Compound 55, 4,4′-(2-methyl-2H-indazole-5,7-diyl)bis(3,5-dimethylisoxazole)] | 300 to 3000 nM | 300 to 3000 nM | 300 to 3000 nM | ≤ 300 nM | – |
| Cc1noc(C)c1-c1cc(Nc2ccccc2)c2nncn2c1 [Example Compound 15, 6-(3,5-dimethylisoxazol-4-yl)-N-phenyl-[1,2,4] triazolo[4,3-a]pyridin-8-amine] | 3000 to 30000 nM | – | 3000 to 30000 nM | ≤ 300 nM | Not active |
| CC(=O)Nc1ccccc1-c1cc(-c2c(C)noc2C)cc2[nH]c(C)nc12 [Example Compound 64, N-(2-(6-(3,5-dimethyl-isoxazol-4-yl)-2-methyl-1H-benzo[d]imidazol-4-yl)phenyl) acetamide] | ≤ 300 nM | 300 to 3000 nM | 300 to 3000 nM | ≤ 300 nM | – |
| Cc1noc(C)c1-c1cc(-c2c(C)noc2C)c2nc(NCCO)[nH]c2c1 [Example Compound 150, 2-((4,6-bis(3,5-dimethyl-isoxazol-4-yl)-1H-benzo[d]imidazol-2-yl)amino) ethanol] | 300 to 3000 nM | 300 to 3000 nM | 300 to 3000 nM | ≤ 300 nM | – |
| Cc1noc(C)c1-c1cc(NCc2ccccc2)c2nncn2c1 [Example Compound 24, N-benzyl-6-(3,5-dimethylisoxazol-4-yl)-[1,2,4]triazolo[4,3-o]pyridin-8-amine] | 300 to 3000 nM | 3000 to 30000 nM | 300 to 3000 nM | ≤ 300 nM | – |
| Cc1noc(C)c1-c1cc(Nc2cccc(F)c2)c2nc[nH]c2c1 [Example Compound 32, 6-(3,5-dimethyl-isoxazol-4-yl)-N-(3-fluorophenyl)-1H-benzo[d] imidazol-4-amine] | 300 to 3000 nM | 300 to 3000 nM | 300 to 3000 nM | ≤ 300 nM | – |
| Cc1noc(C)c1-c1cc(-c2cccc(C#N)c2C)c2nc(N3CCOCC3)[nH]c2c1 [Example Compound 203, 3-(6-(3,5-dimethyl-isoxazol-4-yl)-2-morpholino-1H-benzo[d]imidazol-4-yl)-2-methyl benzonitrile] | ≤ 300 nM | 300 to 3000 nM | ≤ 300 nM | ≤ 300 nM | – |
| COc1c(-c2c(C)noc2C)cc2[nH]c(C)nc2c1-c1c(C)noc1C [Example Compound 227, 4,4′-(5-methoxy-2-methyl-1H-benzo[d]imidazole-4,6-diyl)bis(3,5-dimethylisoxazole)] | 300 to 3000 nM | 3000 to 30000 nM | 300 to 3000 nM | 300 to 3000 nM | – |
| Cc1noc(C)c1-c1cc(-c2cc(N)c(=O)n(C)c2)c2nc[nH]c2c1 [Example Compound 225, 3-amino-5-(6-(3,5-dimethylisoxazol-4-yl)-1H-benzo[d]imidazol-4-yl)-1-methyl-pyridin-2(1H)-one] | 3000 to 30000 nM | 3000 to 30000 nM | 300 to 3000 nM | 300 to 3000 nM | – |
| COc1ccc(C)cc1-c1cc(-c2c(C)noc2C)cc2[nH]cnc12 [Example Compound 51, 4-(4-(2-methoxy-5-methyl-phenyl)-1H-benzo[d]midazol-6-yl)-3,5-dimethyl isoxazole] | 300 to 3000 nM | 300 to 3000 nM | 300 to 3000 nM | ≤ 300 nM | – |
| Cc1noc(C)c1-c1cc(-c2cccc(C(N)=O)c2C)c2nc(NC3CCOCC3)[nH]c2c1 [Example Compound 207, 3-(6-(3,5-dimethyl-isoxazol-4-yl)-2-((tetrahydro-2H-pyran-4-yl)amino)-1H-benzo[d]imidazol-4-yl)-2-methyl benzamide] | 300 to 3000 nM | 300 to 3000 nM | 300 to 3000 nM | ≤ 300 nM | – |
| Cc1noc(C)c1-c1cc(-c2c(C)nn(C)c2C)c2[nH]ncc2c1 [Example Compound 127, 3,5-dimethyl-4-(7-(1,3,5-trimethyl-1H-pyrazol-4-yl)-1H-indazol-5-yl)isoxazole] | ≤ 300 nM | ≤ 300 nM | ≤ 300 nM | ≤ 300 nM | – |
| COc1ccncc1Oc1cc(-c2c(C)noc2C)cc2[nH]c(C)nc12 [Example Compound 171, 4-(4-((4-methoxy-pyridin-3-yl)oxy)-2-methyl-1H-benzo[d]imidazol-6-yl)-3,5-dimethyl isoxazole] | 300 to 3000 nM | 300 to 3000 nM | 300 to 3000 nM | ≤ 300 nM | – |
| Cc1nn(C)cc1-c1cc(-c2c(C)noc2C)cc2cn[nH]c12 [Example Compound 120, 4-(7-(1,3-dimethyl-1H-pyrazol-4-yl)-1H-indazol-5-yl)-3,5-dimethyl isoxazole] | ≤ 300 nM | 300 to 3000 nM | ≤ 300 nM | ≤ 300 nM | – |

Further lines, with some results ahead:

| IC50 (hIL-6 mRNA) | IC50 (Human AML MV-4-11 cells) | IC50 [1] | IC50 [2] | SMILES | Cell Proliferation activity (Human AML MV-4-11 cells; 72 h) |
| --- | --- | --- | --- | --- | --- |
| 300 to 3000 nM | 300 to 3000 nM | 300 to 3000 nM | ≤ 300 nM | COc1ccncc1-c1cc(-c2c(C)noc2C)cc2[nH]c(C)nc12 [Example Compound 72, 4-(4-(4-methoxy-pyridin-3-yl)-2-methyl-1H-benzo[d]imidazol-6-yl)-3,5-dimethyl isoxazole] | – |
| 300 to 3000 nM | 3000 to 30000 nM | 3000 to 30000 nM | ≤ 300 nM | Cc1nc2c(-c3cnccn3)cc(-c3c(C)noc3C)cc2[nH]1 [Example Compound 85, 3,5-dimethyl-4-(2-methyl-4-(pyrazin-2-yl)-1H-benzo[d]imidazol-6-yl)isoxazole] | – |
| ≤ 300 nM | 300 to 3000 nM | 300 to 3000 nM | ≤ 300 nM | Cc1nc2c(-c3c(Cl)cncc3Cl)cc(-c3c(C)noc3C)cc2[nH]1 [Example Compound 130, 4-(4-(3,5-dichloro-pyridin-4-yl)-2-methyl-1H-benzo[d]imidazol-6-yl)-3,5-dimethyl isoxazole] | – |
| 300 to 3000 nM | 300 to 3000 nM | 300 to 3000 nM | ≤ 300 nM | Cc1nc2c(-c3cccc(C)c3F)cc(-c3c(C)noc3C)cc2[nH]1 [Example Compound 106, 4-(4-(2-fluoro-3-methyl-phenyl)-2-methyl-1H-benzo[d]imidazol-6-yl)-3,5-dimethyl isoxazole] | – |
| 300 to 3000 nM | 300 to 3000 nM | 300 to 3000 nM | ≤ 300 nM | Cc1nc2c(-c3ccccc3)cc(-c3c(C)noc3C)cc2[nH]1 [Example Compound 88, 3,5-dimethyl-4-(2-methyl-4-phenyl-1H-benzo[d]imidazol 6-yl)isoxazole] | – |
| 300 to 3000 nM | 300 to 3000 nM | 300 to 3000 nM | ≤ 300 nM | Cc1nc2c(-c3sc(C)nc3C)cc(-c3c(C)noc3C)cc2[nH]1 [Example Compound 170, 4-(4-(2,4-dimethyl-thiazol-5-yl)-2-methyl-1H-benzo[d]imidazol-6-yl)-3,5-dimethyl isoxazole] | – |
| 300 to 3000 nM | 300 to 3000 nM | 300 to 3000 nM | ≤ 300 nM | Cc1nc2c(-c3cc(C(N)=O)ccc3C)cc(-c3c(C)noc3C)cc2[nH]1 [Example Compound 74, 3-(6-(3,5-dimethyl-isoxazol-4-yl)-2-methyl-1H-benzo[d]imidazol-4-yl)-4-methyl benzamide] | – |
| 300 to 3000 nM | 300 to 3000 nM | 300 to 3000 nM | ≤ 300 nM | Cc1nc2c(-c3c(C)ncnc3C)cc(-c3c(C)noc3C)cc2[nH]1 [Example Compound 98, 4-(4-(4,6-dimethyl-pyrimidin-5-yl)-2-methyl-1H-benzo[d]imidazol-6-yl)-3,5-dimethyl isoxazole] | – |
| 300 to 3000 nM | 300 to 3000 nM | ≤ 300 nM | ≤ 300 nM | Cc1nc2c(-c3ccc4ocnc4c3)cc(-c3c(C)noc3C)cc2[nH]1 [Example Compound 136, 5-(6-(3,5-dimethyl-isoxazol-4-yl)-2-methyl-1H-benzo[d]imidazol-4-yl)benzo[d] oxazole] | – |
| ≤ 300 nM | 300 to 3000 nM | ≤ 300 nM | ≤ 300 nM | Cc1nc2c(-c3cccc(C#N)c3C)cc(-c3c(C)noc3C)cc2[nH]1 [Example Compound 123, 3-(6-(3,5-dimethyl-isoxazol-4-yl)-2-methyl-1H-benzo[d]imidazol-4-yl)-2-methyl-benzonitrile] | – |
| 300 to 3000 nM | 300 to 3000 nM | 300 to 3000 nM | ≤ 300 nM | Cc1nc2c(-c3ccc4scnc4c3)cc(-c3c(C)noc3C)cc2[nH]1 [Example Compound 124, 4-(4-(benzo[d]thiazol-5-yl)-2-methyl-1H-benzo[d]imidazol-6-yl)-3,5-dimethyl isoxazole] | – |
